Laboratory results from US20020142436A1, “Human adenylate cyclase and use therefor” (priority 1995, published 2002).
Blank lines part the entries; values can stand above or below the molecule they belong to. Square brackets hold non-standard residues; d marks the D form. Ends that are not written are not given here. Peptide text beside a SMILES is read from it. ξ: configuration not given here. ξNMeBmt = C/C=C/C[C@@H](C)[C@@H](O)C(NC)C(=O)O; NMeL = CN[C@@H](CC(C)C)C(=O)O; NMeV = CN[C@H](C(=O)O)C(C)C; Abu = CC[C@H](N)C(=O)O; Sar = CNCC(=O)O

How the values were obtained:
[1] = tested on: AtT20 cells; test: CRF-induced cAMP accumulation in AtT20 cells; format: cell-based, mouse; details: for cAMP response to CRF after lowering intracellular free Ca2+: EGTA 2 mmol/l, nimodipine 1 μmol/l, BAPTA-AM 20 μmol/l in preincubation, IBMX 0.5 mmol/l; for CRF-induced cAMP formation: 1 μmol/l FK506, 10 nmol/l CRF, calcium-depleted cells
Method: Experiments for cAMP were all carried out in Hanks balanced salt solution containing 2 mM CaCl2 and 1 mM MgSO4 buffered with 25 mM HEPES pH 7.4 and supplemented with 0.25% (w/v) of bovine serum albumin. The cells were preincubated in serum free medium for 1 hour, after which blockers of phosphosdiesterase (isobutylmethylxanthine 0.5 mM (IBMX) and/or rolipram 0.1 mM) along with various other treatments were applied for 30 minutes at 37° C. Subsequently the cells were cooled to 22° C. for 5 minutes in a water bath and agonists were added for 10 minutes. The reaction was stopped by the addition of 0.2 mol/l HCl to achieve a final concentration of 0.1 mol/l (Brooker et al, (1979) Adv. in Cyclic Nucl. Res. Vol. 10, G. Brooker, P. Greengard and G. A. Robinson, Raven Press, New York, 2-34).
In some experiments cells were preincubated for 30 minutes in medium containing 2 mmol/l EGTA and no added Ca^2+, supplemented with 5 μmol/l A23187 and 2.5 μmol/l nifedipine in order to deplete rapidly mobilized cellular stores of Ca^2+. […] The rationale for this pretreatment is that calcineurin reportedly influences L-channel activity (Lai et al, (1993) J. Neurochem. 61:1333-1339; and Armstrong et al, (1987) Proc. Natl. Acad. Sci. U.S.A. 84:2518-2522), whereas the treatment regimen used here would make Ca^2+ entry independent of this regulation.
These compounds were made up in ethanol at 10^−3 mol/l and diluted with the incubation medium to the desired final concentrations. In some cases cells were preincubated with L685,818 the structural analogue of FK506 that binds to FKBP-12 and inhibits prolyl-isomerase activity but is devoid of immunosuppressant activity (Dumont et al, (1992) J. Exp. Med. 176:751-760) for 10 minutes before the addition of FK506 for 30 minutes at 37° C.

[2] = tested on: AtT20 cells; test: cAMP accumulation induced by β-adrenergic stimulation (isoproterenol) in AtT20 cells; format: cell-based, mouse
[3] = tested on: AtT20 cells; test: forskolin-evoked cAMP accumulation in AtT20 cells; format: cell-based, mouse
Method: The cells were preincubated in serum free medium for 1 hour, after which blockers of phosphosdiesterase (isobutylmethylxanthine 0.5 mM (IBMX) and/or rolipram 0.1 mM) along with various other treatments were applied for 30 minutes at 37° C. Subsequently the cells were cooled to 22° C. for 5 minutes in a water bath and agonists were added for 10 minutes. […] Res. Vol. 10, G. Brooker, P. Greengard and G. A. Robinson, Raven Press, New York, 2-34).

[4] = tested on: AtT20 cells; test: ACTH release by AtT20 cells; format: cell-based, mouse
[5] = tested on: HEK293 cells transfected with AC; test: cAMP in HEK293 cells transiently transfected with AC; format: cell-based, human; details: FK506 2 μmol/l, L-685,818 100 μmol/l; 1 mmol/l IBMX, 0.1 mmol/l rolipram
[6] = tested on: T1, GST fusion protein of the FKBP12 like domain (residues 594-611) of mouse AC
T1 sequence: IDDSRESSGPRGQGTASP

[7] = isoproterenol 2 nmol/l, pretreatment FK506 1 μmol/l or BAPTA/AM 20 μmol/l, IBMX 0.5 mmol/l, rolipram 0.1 mmol/l
[8] = isoproterenol 10 nmol/l, pretreatment FK506 1 μmol/l or BAPTA/AM 20 μmol/l, IBMX 0.5 mmol/l, rolipram 0.1 mmol/l
[9] = isoproterenol 1000 nmol/l, pretreatment FK506 1 μmol/l or BAPTA/AM 20 μmol/l, IBMX 0.5 mmol/l, rolipram 0.1 mmol/l

Molecule: CNc1ccc2oc(C[C@H]3O[C@@]4(CC[C@H]3C)O[C@H]([C@H](C)C(=O)c3ccc[nH]3)[C@H](C)C[C@H]4C)nc2c1C(=O)O [A23187]
cAMP response to CRF after lowering intracellular free Ca2+ [1]: markedly increased the cAMP response to CRF

Molecule: CC(=O)OCOC(=O)CN(CC(=O)OCOC(C)=O)c1ccccc1OCCOc1ccccc1N(CC(=O)OCOC(C)=O)CC(=O)OCOC(C)=O [BAPTA-AM, [1,2-bis-(o-Aninophenoxy)-ethane-N,N,N′,N′-tetraacetic acid tetra-(acetoxymethyl)-ester]]
cAMP response to CRF after lowering intracellular free Ca2+ [1]: markedly increased the cAMP response to CRF
isoproterenol induced cAMP formation [2]: enhanced
cAMP accumulation ([2]; isoproterenol 0.4 nmol/l, pretreatment FK506 1 μmol/l or BAPTA/AM 20 μmol/l, IBMX 0.5 mmol/l, rolipram 0.1 mmol/l): 0.96 ± 0.06
cAMP accumulation [2, 7]: 3.6 ± 0.6
cAMP accumulation [2, 8]: 11.4 ± 0.9
cAMP accumulation ([2]; isoproterenol 100 nmol/l, pretreatment FK506 1 μmol/l or BAPTA/AM 20 μmol/l, IBMX 0.5 mmol/l, rolipram 0.1 mmol/l): 35.5 ± 3.4
cAMP accumulation [2, 9]: 46.9 ± 9
enhancement of forskolin-evoked cAMP accumulation ([3]; cells loaded with BAPTA-AM): 15%

Molecule: O=C(O)CN(CCOCCOCCN(CC(=O)O)CC(=O)O)CC(=O)O [EGTA]
cAMP response to CRF after lowering intracellular free Ca2+ [1]: markedly increased the cAMP response to CRF

EC50 ([1]; Mus musculus, AtT20, read-out: apparent EC50 to augment cAMP accumulation induced by CRF): ~10 nM
EC50 ([4]; Mus musculus, AtT20, read-out: apparent EC50 to stimulate ACTH release): ~10 nM
Molecule: C=CC[C@@H]1/C=C(\C)C[C@H](C)C[C@H](OC)[C@H]2O[C@@](O)(C(=O)C(=O)N3CCCC[C@H]3C(=O)O[C@H](/C(C)=C/[C@@H]3CC[C@@H](O)[C@H](OC)C3)[C@H](C)[C@@H](O)CC1=O)[C@H](C)C[C@@H]2OC [FK506]
CRF-induced cAMP formation ([1]; extracellular free Ca2+ 0 mmol/l, 0.5 mmol/l IBMX): 10.3 ± 0.10 pmol/well
CRF-induced cAMP formation ([1]; extracellular free Ca2+ 0.5 mmol/l, 0.5 mmol/l IBMX): 10.0 ± 0.11 pmol/well
CRF-induced cAMP formation ([1]; extracellular free Ca2+ 1.0 mmol/l, 0.5 mmol/l IBMX): 10.4 ± 0.10 pmol/well
CRF-induced cAMP formation ([1]; extracellular free Ca2+ 1.5 mmol/l, 0.5 mmol/l IBMX): 11.3 ± 0.13 pmol/well
CRF-induced cAMP formation ([1]; extracellular free Ca2+ 2.0 mmol/l, 0.5 mmol/l IBMX): 9.5 ± 0.11 pmol/well
cAMP accumulation [2, 7]: 3.3 ± 0.7
cAMP accumulation [2, 8]: 15.3 ± 2.5
cAMP accumulation [2, 9]: 45.3 ± 9
cAMP accumulation evoked by forskolin ([3]; 10 or 30 μM forskolin): no significant effect
unstimulated cAMP levels [5]: 3 fold

Molecule: CC(C)NCC(O)c1ccc(O)c(O)c1 (centres unmarked) [Isoproterenol]
cAMP accumulation ([2]; isoproterenol 0.4 nmol/l, no pretreatment): 0.7 ± 0.04
cAMP accumulation ([2]; isoproterenol 2 nmol/l, no pretreatment): 2.0 ± 0.08
cAMP accumulation ([2]; isoproterenol 10 nmol/l, no pretreatment): 9.5 ± 0.33
cAMP accumulation ([2]; isoproterenol 100 nmol/l, no pretreatment): 19.5 ± .5
cAMP accumulation ([2]; isoproterenol 1000 nmol/l, no pretreatment): 32.1 ± 0.5

Molecule: C/C=C/C[C@@H](C)[C@@H](O)C1C(=O)N[C@@H](CC)C(=O)N(C)CC(=O)N(C)[C@@H](C(C)C)C(=O)N[C@@H](C(C)C)C(=O)N(C)[C@@H](CC(C)C)C(=O)N[C@@H](C)C(=O)N[C@H](C)C(=O)N(C)[C@@H](CC(C)C)C(=O)N(C)[C@@H](CC(C)C)C(=O)N(C)[C@@H](C(C)C)C(=O)N1C (some centres unmarked) [MeVal^4-cyclosporin A] (cyclo(A[dA][NMeL][NMeL][NMeV][ξNMeBmt][Abu][Sar][NMeV]V[NMeL]))
CRF-induced cAMP production ([1]; 10 nmol/l CRF, 0.5 mmol/l IBMX, drug preincubated 30 minutes): enhanced CRF-induced cAMP production in a concentration dependent manner

Molecule: CRF: hypothalamic neuropeptide corticotropin-releasing factor (SEEPPISLDLTFHLLREVLEMARAEQLAQQAHSNRKLMEII; ends and bridges not checked; UniProt P06850 154-194, looked up)
cAMP level in the presence of CRF ([1]; 10 nmol/l CRF (FIG. 3A)): 12 pmol/well*10minutes
increment of cAMP caused by CRF ([1]; 10 nmol/l CRF, 0.5 mmol/l isobutylmethylxanthine (FIG. 1)): 6.1 pmol/well
CRF-stimulated ACTH release ([4]; FIG. 7A, value taken as 100%): 22±1 fmol/well*30 minutes

Molecule: cAMP dependent protein kinase
phosphorylation of the cyclase portion of the GST fusion protein [6]: can be phosphorylated by cAMP dependent protein kinase

Molecule: calcineurin (protein phosphatase 2B), as used on the GST fusion protein
dephosphorylation of the cyclase portion of the GST fusion protein [6]: dephosphorylated in a calcium dependent manner by calcineurin

Molecule: pertussis toxin
suppression of CRF-induced cAMP formation by extracellular Ca2+ ([1]; Ca2+-depleted cells, pertussis toxin treatment): had no effect on the suppression of CRF-induced cAMP formation by extracelluar Ca^2+
inhibitory G-protein function (somatostatin-mediated inhibition of cAMP formation) ([1]; pertussis toxin 1 μg/ml): strongly suppressed inhibitory G-protein function
